# Results as given in patent US10729664B2, “Permanently charged sodium and calcium channel blockers as anti-inflammatory agents” (Children's Medical Center Corporation, priority 2009, dated 2020).
# “Also recorded” adds a separate entry of the source.
# Tests used:
# [1] = test system: voltage-dependent calcium channels; test: Whole-cell recording of currents through voltage-activated calcium channels in a dissociated dorsal root ganglion neuron; type: cell-based, rat
# Experimental: The traces show currents through voltage-activated calcium channels in a dissociated rat dorsal root ganglion neuron, recorded in whole-cell mode. Current was carried by 2 mM Ba^2+ on a background of 155 mM N-methyl-D-glucamine (to eliminate Na current), with an internal CsCl-based solution. Calcium channels were opened by a voltage step from −80 mV to −20 mV. When channels are opened, inward-going current is carried by Ba^2+ ions flowing into the cell.
# rat hindpaw = test: Edema elicited by injection of complete Freund's adjuvant (CFA) in the rat hindpaw, total hindpaw volume by plethysmography; type: in vivo; conditions: intravenous QX-314 0.4 mg/kg
# Experimental: FIG. 1 is a graph showing the effect of intravenous QX-314 (0.4 mg/kg) on the edema elicited by injection of complete Freund's adjuvant (CFA) in the rat hindpaw determined by measuring the total volume of the hindpaw by plethysmography. The degree of swelling produced by injection of CFA is reduced by administration of QX-314 reflecting reduction in neurogenic edema resulting from the blockade of nociceptors by QX314.
compound,measurement,setting,value
"COc1cc(CNC(=O)CCCC/C=C/C(C)C)ccc1O [capsaicin, reference compound]","effect on calcium channel currents, capsaicin alone","[1]; 1 μM capsaicin alone, before and 3 minutes after exposure, step from −80 mV to −20 mV, 2 mM Ba2+","weak, transient effects"
COc1ccc(CC[N+](C)(C)CCCC(C#N)(c2ccc(OC)c(OC)c2)C(C)C)cc1OC (centres unmarked) [N-methyl-verapamil],"effect on calcium channel currents, N-methyl-verapamil alone","[1]; 300 μM N-methyl-verapamil alone, before and 3 minutes after exposure, step from −80 mV to −20 mV, 2 mM Ba2+","weak, transient effects"
same,"inhibition of voltage-dependent calcium channel current, N-methyl-verapamil applied in the presence of capsaicin","[1]; 300 μM N-methyl-verapamil in the presence of 1 μM capsaicin to open TRPV1 channels, 3 minutes after exposure and after washout",long-lasting inhibition; also recorded: inhibition of calcium channel currents that persists after washout; also recorded: inhibition of voltage-dependent calcium channel current
CC[N+](CC)(CC)CC(=O)Nc1c(C)cccc1C [QX-314],degree of swelling produced by injection of CFA (total volume of the hindpaw),rat hindpaw; CFA-injected hindpaw,reduced
same,effect on hindpaw volume of QX-314 by itself,"rat hindpaw; by itself (no CFA), compared with saline",no effect different from administration of saline
